# Measurements taken from patent US12655174B2, “Adenosine A3 receptor agonists, preparation methods and uses thereof” (ZHEJIANG VIMGREEN PHARMACEUTICALS, LTD., priority 2020, dated 2026).
# “And” between values parts separate entries of the source, which are not always exact repeats. Equal entries are not always repeated.
# Tests used:
# [1] = Pharmacokinetic test of compound in SD rat; assay type: in vivo; settings: SD rats, intragastric administration (IG), cassette dosing
# Description: Example 28: Pharmacokinetic Test of Compound in SD Rat
# The animal species used in this experiment were SD rats. There were 3 animals per group. The rats were dosed in cassette format, i.e., multiple (1-6) different compounds were dosed simultaneously to the same group of the SD rats. The vehicle used for the drug was 5% DMSO+5% Solutl+90% ([…] methylcellulose M450), and the administration route was intragastric administration (IG).
# [2] = biological target: T1, ADORA3 receptor (CHO cells stably expressing ADORA3 receptor) (Homo sapiens, UniProt P0DMS8); assay: Effect of compound on intracellular cAMP level by adenosine A3 receptor agonism; assay type: cell-based; settings: forskolin-stimulated
# T1 construct: expressed in transfected cells
# T1 sequence (P0DMS8 1-318): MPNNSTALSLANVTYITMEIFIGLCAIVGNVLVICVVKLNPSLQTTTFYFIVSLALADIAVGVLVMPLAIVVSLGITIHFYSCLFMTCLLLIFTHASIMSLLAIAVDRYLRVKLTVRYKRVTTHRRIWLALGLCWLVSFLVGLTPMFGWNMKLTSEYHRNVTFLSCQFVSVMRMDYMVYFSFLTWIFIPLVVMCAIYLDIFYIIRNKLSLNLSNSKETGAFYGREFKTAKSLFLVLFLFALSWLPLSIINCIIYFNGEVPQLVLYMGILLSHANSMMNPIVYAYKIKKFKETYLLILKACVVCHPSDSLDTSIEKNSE
# Description: Example 26: Test the Effect of Compound on Intracellular cAMP Level by Adenosine A3 Receptor Agonism
# • 1) 1×HBSS with Ca2+ and Mg2+ (14 mL), 1 M HEPES (75 μL), a 7.5% (w/v) BSA stabilizer (pH 7.4, 200 μL), and 20 mM rolipram (7.5 μL) were respectively prepared as cAMP assay buffer. • 2) Preparation of compound source plate • a. […] A 10 mM stock solution was subjected to a 3-fold serial dilution by 100% (v/v) DMSO to prepare 10 doses of the test substance. • c. 1 mM of Forskolin was prepared by 100% (v/v) DMSO. • 3) Preparation of test plate • a. Prior to the assay, CHO cells stably expressing ADORA3 receptor were harvested and the cells were counted by using a Countess cell counter. […] The cells were seeded at a density of 2,000 cells/well in a 384-well plate. • 4) 10 nL/well of the serially diluted compound and 10 nL/well of 1 mM of forskolin were transferred to each well with ADORA3 receptor expressing cells by using Echo550. • 5) A cell plate was centrifuged at 1,000 rpm for 1 minute and then stirred at 600 rpm for 2 minutes. The plate was incubated at 37° C. • 6) An Eu-cAMP tracer working solution and an Ulight-anti-cAMP working solution were prepared according to the following table.
# • 7) 5 μl/well of the Eu-cAMP tracer working solution and 5 μl/well of the Ulight-anti-cAMP working solution were added to each well of the plate. […] 2. Data Analysis • 1) An activation percentage was calculated by using the following formula:
# [formula] • % Activation: activation percentage • Ratiocpd: ratio of emissivity of test compound • RatioLow control: ratio of low emissivity • RatioHigh control: ratio of high emissivity • 2) EC50 was calculated by an XLfit using the Hill equation to fit the activity percentage and a log of a compound concentration. 3. Test Result
SMILES,AUC_D [1],EC50 [2]
"CCOc1cncc(-c2nc(NCc3cccc(C)c3)c3ncn(C4O[C@H](C(=O)NC)[C@@H](O)[C@H]4O)c3n2)c1 (stereo in doubt) [compound 301, (2S,3S,4R,5S)-5-(2-(5-ethoxypyridin-3-yl)-6-((3-methylbenzyl)amino)-9H-purin-9-yl)-3,4-dihydroxyl-N-methyltetrahydrofuran-2-carboxamide]",744.06 kg·ng·h/mL/mg,3.78 nM
"CNC(=O)[C@H]1OC(n2cnc3c(NCc4ccccn4)nc(-c4cncc(OC)c4)nc32)[C@H](O)[C@@H]1O (stereo in doubt) [compound 307, (2S,3S,4R,5S)-3,4-dihydroxyl-5-(2-(5-methoxypyridin-3-yl)-6-((pyridin-2-ylmethyl)amino)-9H-purin-9-yl)-N-methyltetrahydrofuran-2-carboxamide]",173.85 kg·ng·h/mL/mg,9.4 nM
"[2H]C([2H])([2H])NC(=O)[C@H]1O[C@@H](n2cnc3c(NCc4ccccc4)nc(-c4ccsc4)nc32)[C@H](O)[C@@H]1O [compound 24, (2S,3S,4R,5R)-5-(6-(benzylamino)-2-(thiophen-3-yl)-9H-purin-9-yl)-3,4-dihydroxyl-N-(methyl-d3)-tetrahydrofuran-2-formamide]",86.00 kg·ng·h/mL/mg,5.77 nM
"[2H]C([2H])([2H])NC(=O)[C@H]1O[C@@H](n2cnc3c(NC([2H])([2H])[2H])nc(-c4ccsc4)nc32)[C@H](O)[C@@H]1O [compound 92, (2S,3S,4R,5R)-3,4-dihydroxyl-N-(methyl-d3)-5-(6-(methyl-d3-amino)-2-(thiophen-3-yl)-9H-purin-9-yl)tetrahydrofuran-2-carboxamide]",83.00 kg·ng·h/mL/mg,< 0.51 nM
"CNC(=O)[C@H]1O[C@@H](n2cnc3c(NCc4cccc(C)c4)nc(-c4cccnc4)nc32)[C@H](O)[C@@H]1O [compound 108, (2S,3S,4R,5R)-3,4-dihydroxyl-N-methyl-5-(6-((3-methylbenzyl)amino)-2-(pyridin-3-yl)-9H-purin-9-yl)tetrahydrofuran-2-carboxamide]",801.47 kg·ng·h/mL/mg,1.58 nM
"CNC(=O)[C@H]1O[C@@H](n2cnc3c(NCc4cccc(C)n4)nc(-c4cncc(OC)c4)nc32)[C@H](O)[C@@H]1O [compound 111, (2S,3S,4R,5R)-3,4-dihydroxyl-5-(2-(5-methoxypyridin-3-yl)-6-((((6-methylpyridin-2-yl))methyl)amino)-9H-purin-9-yl)-N-methyltetrahydrofuran-2-carboxamide]",230.72 kg·ng·h/mL/mg,7.32 nM
"CNC(=O)[C@H]1O[C@@H](n2cnc3c(NCc4cccc(C)c4)nc(-c4cncc(Cl)c4)nc32)[C@H](O)[C@@H]1O [compound 160, (2S,3S,4R,5R)-5-(2-(5-chloropyridin-3-yl)-6-((3-methylbenzyl)amino)-9H-purin-9-yl)-3,4-dihydroxyl-N-methyltetrahydrofuran-2-carboxamide]",1900.75 kg·ng·h/mL/mg and 1515.94 kg·ng·h/mL/mg,3.53 nM
"CNC(=O)[C@H]1O[C@@H](n2cnc3c(NCc4cccc(C(F)(F)F)c4)nc(-c4cncc(Cl)c4)nc32)[C@H](O)[C@@H]1O [compound 179, (2S,3S,4R,5R)-5-(6-(3-(trifluoromethyl)benzylamino)-2-(5-chloropyridin-3-yl)-9H-purin-9-yl)-3,4-dihydroxyl-N-methyl-tetrahydrofuran-2-formamide]",273.37 kg·ng·h/mL/mg,9.44 nM
"CNC(=O)[C@H]1O[C@@H](n2cnc3c(NCc4cc(Cl)ccn4)nc(-c4cncc(OC)c4)nc32)[C@H](O)[C@@H]1O [compound 185, (2S,3S,4R,5R)-5-(6-((4-chloropyridin-2-yl)methylamino)-2-(5-methoxypyridin-3-yl)-9H-purin-9-yl)-3,4-dihydroxyl-N-methyl-tetrahydrofuran-2-formamide]",589.63 kg·ng·h/mL/mg,< 0.51 nM
"CNC(=O)[C@H]1O[C@@H](n2cnc3c(NCc4ccccc4)nc(-c4cncc(OC)c4)nc32)[C@H](O)[C@@H]1O [compound 187, (2S,3S,4R,5R)-5-(6-(benzylamino)-2-(5-methoxypyridin-3-yl)-9H-purin-9-yl)-3,4-dihydroxyl-N-methyl-tetrahydrofuran-2-formamide]",1269.78 kg·ng·h/mL/mg,14.5 nM
"[2H]C([2H])([2H])NC(=O)[C@H]1O[C@@H](n2cnc3c(NCc4cccc(CC)c4)nc(-c4cncc(Cl)c4)nc32)[C@H](O)[C@@H]1O [compound 223, (2S,3S,4R,5R)-5-(2-(5-chloropyridin-3-yl)-6-((3-ethylbenzyl)amino)-9H-purin-9-yl)-3,4-dihydroxyl-N-(methyl-d3)-tetrahydrofuran-2-carboxamide]",,15.2 nM
"[2H]C([2H])([2H])NC(=O)[C@H]1O[C@@H](n2cnc3c(NCc4cc(Cl)ccc4F)nc(-c4cncc(Cl)c4)nc32)[C@H](O)[C@@H]1O [compound 245, (2S,3S,4R,5R)-5-(6-(5-chloro-2-fluorobenzylamino)-2-(5-chloropyridin-3-yl)-9H-purin-9-yl)-3,4-dihydroxyl-N-((methyl-d3))-tetrahydrofuran-2-carboxamide]",1182.41 kg·ng·h/mL/mg,0.28 nM
"[2H]C([2H])([2H])NC(=O)[C@H]1O[C@@H](n2cnc3c(NCc4cc(F)ccc4Cl)nc(-c4cncc(Cl)c4)nc32)[C@H](O)[C@@H]1O [compound 246, (2S,3S,4R,5R)-5-(6-(2-chloro-5-fluorobenzylamino)-2-(5-chloropyridin-3-yl)-9H-purin-9-yl)-3,4-dihydroxyl-N-(methyl-d3)-tetrahydrofuran-2-carboxamide]",,1.18 nM
CNC(=O)[C@H]1O[C@@H](n2cnc3c(NCc4cccc(Cl)n4)nc(-c4cccnc4)nc32)[C@H](O)[C@@H]1O [compound 247],,4.16 nM

# Now from value to compound:
AUC_D [1],EC50 [2],SMILES
994.72 kg·ng·h/mL/mg,0.74 nM,"CNC(=O)[C@H]1O[C@@H](n2cnc3c(NCc4cccc(C)c4)nc(-c4cncc(F)c4)nc32)[C@H](O)[C@@H]1O [compound 161, (2S,3S,4R,5R)-5-(2-(5-fluoropyridin-3-yl)-6-((3-methylbenzyl)amino)-9H-purin-9-yl)-3,4-dihydroxyl-N-methyltetrahydrofuran-2-carboxamide]"
235.62 kg·ng·h/mL/mg,< 0.51 nM,"CNC(=O)[C@H]1O[C@@H](n2cnc3c(NCc4cc(Cl)ccn4)nc(-c4cccnc4)nc32)[C@H](O)[C@@H]1O [compound 182, (2S,3S,4R,5R)-5-(6-((4-chloropyridin-2-yl)methylamino)-2-(pyridin-3-yl)-9H-purin-9-yl)-3,4-dihydroxyl-N-methyl-tetrahydrofuran-2-formamide]"
,1.34 nM,"[2H]C([2H])([2H])NC(=O)[C@H]1O[C@@H](n2cnc3c(NCc4cc(C)cc(C)c4)nc(-c4cncc(Cl)c4)nc32)[C@H](O)[C@@H]1O [compound 224, (2S,3S,4R,5R)-5-(2-(5-chloropyridin-3-yl)-6-((3,5-dimethylbenzyl)amino)-9H-purin-9-yl)-3,4-dihydroxyl-N-(methyl-d3)-tetrahydrofuran-2-carboxamide]"
212.91 kg·ng·h/mL/mg,8.68 nM,"CNC(=O)[C@H]1O[C@@H](n2cnc3c(NCc4cccc(Cl)n4)nc(-c4cncc(OC)c4)nc32)[C@H](O)[C@@H]1O [compound 230, (2S,3S,4R,5R)-5-(6-(((6-chloropyridin-2-yl)methyl)amino)-2-(5-methoxypyridin-3-ly)-9H-purin-9-yl)-3,4-dihydroxyl-N-methyltetrahydrofuran-2-carboxamide]"
,4 nM,"[2H]C([2H])([2H])NC(=O)[C@H]1O[C@@H](n2cnc3c(NCc4cccc(C)c4)nc(-c4cncc(CC)c4)nc32)[C@H](O)[C@@H]1O [compound 282, (2S,3S,4R,5R)-5-(2-(5-ethylpyridin-3-yl)-6-((3-methylbenzyl)amino)-9H-purin-9-yl)-3,4-dihydroxyl-N-(methyl-d3)tetrahydrofuran-2-formamide]"
,2.26 nM,[2H]C([2H])([2H])NC(=O)[C@H]1O[C@@H](n2cnc3c(NCc4cccc(C)c4)nc(-c4cncc(OC)c4)nc32)[C@H](O)[C@@H]1O [compound 302]
